Assay [1] relates to HEL cells. The assay can be described thus: Phospho-CREB ELISA. Type of assay: cell-based, human. On the procedure:
Here, 100,000 HEL cells were seeded on a 96-well cell culture plate in RPMI 1640 medium and incubated overnight for starvation. The starved cells were stimulated by rhTPO or TMP-PA8 for 20 min, rinsed once with PBS, and lysed with lysis buffer 17 supplemented with a protease inhibitor cocktail. The phosphorylation level of CREB was assessed using phospho-CREB (Ser133) and the Total CREB ELISA kit (RayBio) according to the manufacturer’s instructions. The amounts of phospho-CREB and total CREB were quantified by measuring absorbance at 450 nm, and the phospho-CREB level was calculated as (absorbance of pCREB)/(absorbance of total CREB).

Assay [2] concerns HEL cells. Kind of assay: Phosphokinase array (TPO signal cascade). Type of assay: cell-based, human. The following applies: 5.4 nM rhTPO or 1:1000 diluted TMP-PA8 supernatant, 20 min. On the procedure: The TPO signal cascade was analyzed using the Proteome Profiler Human Phosphokinase Array Kit (R&D Systems). Briefly, 1 × 10^6 HEL cells in a 6-well cell culture dish were starved in RPMI 1640 medium for 24 h. The starved cells were stimulated by 5.4 nM rhTPO or 1:1000 diluted TMP-PA8 containing a C. glutamicum supernatant for 20 min, rinsed once with PBS, and lysed with 200 μL of lysis buffer 17 supplemented with a protease inhibitor cocktail. Lysates were analyzed using the Proteome Profiler Human Phosphokinase Array Kit (R&D Systems) according to the manufacturer’s instructions. Chemiluminescence was detected using Amersham Imager 600 (Cytiva).

For “rhTPO: recombinant human TPO (Peprotech)”, the “Normazlied pCREB/CREB” value with HEL cells [1] (7.375 pM, replicate 1) is reported as 1.252; in the assay on HEL cells [1] (7.375 pM, replicate 2) it was 0.9311; in the assay with HEL cells [1] (7.375 pM, replicate 3), 0.9649; with HEL cells [1] (22.12 pM, replicate 1) it was 1.113; in the assay on HEL cells [1] (22.12 pM, replicate 2) it was 1.1408; in the assay with HEL cells [1] (22.12 pM, replicate 3), 1.274. The “Normazlied pCREB/CREB” value with HEL cells [1] (66.37 pM, replicate 1) was determined as 1.03; in the assay on HEL cells [1] (66.37 pM, replicate 2) it was 1.312; in the assay on HEL cells [1] (66.37 pM, replicate 3) it was 1.353; in the assay on HEL cells [1] (199.1 pM, replicate 1), 1.208; in the assay with HEL cells [1] (199.1 pM, replicate 2), 1.421; with HEL cells [1] (199.1 pM, replicate 3) it was 1.637. The “Normazlied pCREB/CREB” value is 1.281 with HEL cells [1] (597.4 pM, replicate 1); 1.5026 in the assay on HEL cells [1] (597.4 pM, replicate 2); 1.479 in the assay with HEL cells [1] (597.4 pM, replicate 3); 1.452 with HEL cells [1] (1.79211e-9 M, replicate 1); 1.237 with HEL cells [1] (1.79211e-9 M, replicate 2); 1.5195 in the assay on HEL cells [1] (1.79211e-9 M, replicate 3). The “Normazlied pCREB/CREB” value with HEL cells [1] (5.37634e-9 M, replicate 1) is given as 1.523; in the assay on HEL cells [1] (5.37634e-9 M, replicate 2), 0.9969; with HEL cells [1] (5.37634e-9 M, replicate 3), 1.102. The “promotion of CREB phosphorylation” value in the assay on HEL cells [1] (at concentrations of 0.1-1 nM) was 1.5 fold. In the assay with HEL cells [2], the “phosphorylation of STAT3, STAT5, Erk1/2 and CREB compared with unstimulated cells” value is listed as “enhanced”.

Values taken from paper PMC8760323, “Single-chain tandem macrocyclic peptides as a scaffold for growth factor and cytokine mimetics” (Communications Biology, 2022).
